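The compound was tested at five concentrations on cells cultured in 96-well plates, with a 48-hour exposure period. GI50: concentration for 50% inhibition of growth. The concentration for full growth arrest is given as TGI.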
Tests used:
Assay in all cases: NCI tumour cell line growth inhibition, 48 h
[1] = test system: UACC-62 melanoma
[2] = test system: SK-OV-3 ovarian
[3] = test system: 786-0 renal
[4] = test system: OVCAR-3 ovarian
[5] = test system: HCC-2998 colon
[6] = test system: XF 498 CNS
[7] = test system: HOP-18 NSCLC
[8] = test system: NCI-H460 lung
[9] = test system: OVCAR-5 ovarian
[10] = test system: RXF-631 renal
[11] = test system: RXF 393 renal
[12] = test system: KM20L2 colon
[13] = test system: SF-539 CNS
[14] = test system: SN12C renal
[15] = test system: NCI-H522 lung
[16] = test system: OVCAR-8 ovarian
[17] = test system: M14 melanoma
[18] = test system: OVCAR-4 ovarian
[19] = test system: SK-MEL-2 melanoma
[20] = test system: HCT-116 colon
[21] = test system: DMS 273 small cell lung
[22] = test system: KM12 colon
[23] = test system: M19-MEL melanoma
[24] = test system: UO-31 renal
[25] = test system: DMS 114 small cell lung
[26] = test system: HT29 colon
[27] = test system: LXFL 529 NSCLC
[28] = test system: CCRF-CEM leukemia
[29] = test system: MALME-3M melanoma
[30] = test system: NCI-H23 lung
[31] = test system: ACHN renal
[32] = test system: UACC-257 melanoma
[33] = test system: SK-MEL-28 melanoma
[34] = test system: DLD-1 colon
[35] = test system: SF-295 CNS
[36] = test system: SNB-75 CNS
[37] = test system: MOLT-4 leukemia
[38] = test system: K-562 leukemia
[39] = test system: COLO 205 colon
[40] = test system: HOP-92 NSCLC
[41] = test system: SW-620 colon
[42] = test system: HCT-15 colon
[43] = test system: SNB-78 CNS
[44] = test system: IGROV1 ovarian
[45] = test system: LOX IMVI melanoma
[46] = test system: NCI-H226 lung
[47] = test system: SK-MEL-5 melanoma
[48] = test system: SNB-19 CNS
[49] = test system: HOP-62 NSCLC
[50] = test system: A498 renal
[51] = test system: EKVX NSCLC
[52] = test system: TK-10 renal
[53] = test system: A549 NSCLC
[54] = test system: U251 CNS
[55] = test system: SR leukemia
[56] = test system: SF-268 CNS
[57] = test system: HL-60(TB) leukemia
[58] = test system: RPMI-8226 leukemia
[59] = test system: CAKI-1 renal

For `N#CC(C(=O)/C(=N/NC(=O)c1ccccc1O)C(C#N)c1ccc(Br)cc1)c1ccc(Br)cc1` (stereo not drawn), the TGI [1] was 28.2 µM, the TGI [2] was > 100 µM and the TGI [3] was 27 µM. The TGI [4] was 26.4 µM, the TGI [5] was 24.7 µM and the TGI [6] was 26.6 µM. The TGI [7] was 20.5 µM, the TGI [8] was 40 µM and the TGI [9] was 29.1 µM. For the same compound, the TGI [10] was 28.5 µM, the TGI [11] was 16 µM and the TGI [12] was 29.2 µM. The TGI [13] was 25.3 µM, the TGI [14] was 21.9 µM and the TGI [15] was 27.7 µM. It also gave a TGI [16] of 19.8 µM, a TGI [17] of 29 µM and a TGI [18] of 29.4 µM. For the same compound, the TGI [19] was 25 µM, the TGI [20] was 26.6 µM and the TGI [21] was 26.8 µM. For the same compound, the TGI [22] was 25.5 µM, the TGI [23] was 25.2 µM and the TGI [24] was 26.1 µM. It also gave a TGI [25] of 33 µM, a TGI [26] of 33.9 µM and a TGI [27] of 13.4 µM. The TGI [28] was 76.4 µM, the TGI [29] was 24.6 µM and the TGI [30] was 16.4 µM. For the same compound, the TGI [31] was 26.7 µM, the TGI [32] was 29.5 µM and the TGI [33] was 28.2 µM. It also gave a TGI [34] of 25.6 µM, a TGI [35] of 28.6 µM and a TGI [36] of 9.98 µM. For the same compound, the TGI [37] was 44 µM, the TGI [38] was > 100 µM and the TGI [39] was 30.1 µM. The TGI [40] was 31.1 µM, the TGI [41] was 18.1 µM and the TGI [42] was 25.5 µM. The TGI [43] was 25.5 µM, the TGI [44] was 33.3 µM and the TGI [45] was 23 µM. For the same compound, the TGI [46] was 19.1 µM, the TGI [47] was 21.5 µM and the TGI [48] was 24.3 µM. The TGI [49] was 29.5 µM, the TGI [50] was 26.8 µM and the TGI [51] was 30 µM. The TGI [52] was 39.1 µM, the TGI [53] was 39.9 µM and the TGI [54] was 23.7 µM.

For `CC[O-].CC[O-].COc1ccc(C(=O)[CH-]C(C)=O)cc1OC.COc1ccc(C(=O)[CH-]C(C)=O)cc1OC.[Ti+4]`, the GI50 [1] was 56.5 µM, the TGI [1] was > 100 µM and the GI50 [3] was 48 µM. The TGI [3] was > 100 µM, the GI50 [4] was 46.4 µM and the TGI [4] was > 100 µM. For the same compound, the GI50 [55] was 31.1 µM, the TGI [55] was 83.4 µM and the GI50 [5] was > 100 µM. The TGI [5] was > 100 µM, the GI50 [7] was 29.8 µM and the TGI [7] was > 100 µM. For the same compound, the GI50 [8] was 55.8 µM, the TGI [8] was > 100 µM and the GI50 [9] was 53.8 µM. For the same compound, the TGI [9] was > 100 µM, the GI50 [10] was 49.4 µM and the TGI [10] was > 100 µM. For the same compound, the GI50 [11] was 34.1 µM, the TGI [11] was 99.7 µM and the GI50 [12] was 53.1 µM. The TGI [12] was > 100 µM, the GI50 [13] was 38.9 µM and the TGI [13] was > 100 µM. For the same compound, the GI50 [14] was > 100 µM, the TGI [14] was > 100 µM and the GI50 [56] was > 100 µM. For the same compound, the TGI [56] was > 100 µM, the GI50 [57] was 43.3 µM and the TGI [57] was > 100 µM. For the same compound, the GI50 [16] was 81.9 µM, the TGI [16] was > 100 µM and the GI50 [17] was 83.8 µM. For the same compound, the TGI [17] was > 100 µM, the GI50 [18] was > 100 µM and the TGI [18] was > 100 µM. For the same compound, the GI50 [19] was 78.3 µM, the TGI [19] was > 100 µM and the GI50 [20] was > 100 µM. The TGI [20] was > 100 µM, the GI50 [21] was 44.4 µM and the TGI [21] was > 100 µM. The GI50 [24] was 11.7 µM, the TGI [24] was 49.7 µM and the GI50 [25] was > 100 µM. For the same compound, the TGI [25] was > 100 µM, the GI50 [26] was 47.8 µM and the TGI [26] was > 100 µM. For the same compound, the GI50 [27] was 38.7 µM, the TGI [27] was > 100 µM and the GI50 [28] was 27.8 µM. The TGI [28] was > 100 µM, the GI50 [29] was 35.1 µM and the TGI [29] was 86.6 µM. The GI50 [30] was > 100 µM, the TGI [30] was > 100 µM and the GI50 [31] was 35.9 µM. The TGI [31] was > 100 µM, the GI50 [58] was 44.6 µM and the TGI [58] was > 100 µM. For the same compound, the GI50 [32] was > 100 µM, the TGI [32] was > 100 µM and the GI50 [33] was > 100 µM. For the same compound, the TGI [33] was > 100 µM, the GI50 [34] was 77.5 µM and the TGI [34] was > 100 µM. For the same compound, the GI50 [35] was 33.9 µM, the TGI [35] was > 100 µM and the GI50 [36] was 26.9 µM. The TGI [36] was > 100 µM, the GI50 [37] was 35.4 µM and the TGI [37] was > 100 µM. The GI50 [38] was > 100 µM, the TGI [38] was > 100 µM and the GI50 [39] was > 100 µM. The TGI [39] was > 100 µM, the GI50 [40] was 32.1 µM and the TGI [40] was 65.9 µM. The GI50 [59] was 33 µM, the TGI [59] was 96.1 µM and the GI50 [41] was > 100 µM. The TGI [41] was > 100 µM, the GI50 [42] was 90.1 µM and the TGI [42] was > 100 µM. For the same compound, the GI50 [43] was 72.2 µM, the TGI [43] was > 100 µM and the GI50 [44] was 54.8 µM. For the same compound, the TGI [44] was > 100 µM, the GI50 [45] was 80.3 µM and the TGI [45] was > 100 µM. For the same compound, the GI50 [46] was > 100 µM, the TGI [46] was > 100 µM and the GI50 [47] was > 100 µM. The TGI [47] was > 100 µM, the GI50 [48] was 73 µM and the TGI [48] was > 100 µM. The GI50 [49] was 46.2 µM, the TGI [49] was > 100 µM and the GI50 [50] was 29.6 µM. It also gave a TGI [50] of 75.2 µM, a GI50 [51] of 24.6 µM and a TGI [51] of 79.6 µM. For the same compound, the GI50 [53] was > 100 µM and the TGI [53] was > 100 µM.

Source: PubChem BioAssay (NCI)
